Data on three substances can be found in patent publication US7244557B2, “Method of screening modulators of Nod1 signaling” (Regents of the University of Michigan, priority 2003, dated 2007).

This test deals with T1, TLR2 (Homo sapiens, UniProt O60603).
T1 construct: expressed in transfected cells; host or cells: HEK293T
T1 sequence (O60603 21-784, species assumed): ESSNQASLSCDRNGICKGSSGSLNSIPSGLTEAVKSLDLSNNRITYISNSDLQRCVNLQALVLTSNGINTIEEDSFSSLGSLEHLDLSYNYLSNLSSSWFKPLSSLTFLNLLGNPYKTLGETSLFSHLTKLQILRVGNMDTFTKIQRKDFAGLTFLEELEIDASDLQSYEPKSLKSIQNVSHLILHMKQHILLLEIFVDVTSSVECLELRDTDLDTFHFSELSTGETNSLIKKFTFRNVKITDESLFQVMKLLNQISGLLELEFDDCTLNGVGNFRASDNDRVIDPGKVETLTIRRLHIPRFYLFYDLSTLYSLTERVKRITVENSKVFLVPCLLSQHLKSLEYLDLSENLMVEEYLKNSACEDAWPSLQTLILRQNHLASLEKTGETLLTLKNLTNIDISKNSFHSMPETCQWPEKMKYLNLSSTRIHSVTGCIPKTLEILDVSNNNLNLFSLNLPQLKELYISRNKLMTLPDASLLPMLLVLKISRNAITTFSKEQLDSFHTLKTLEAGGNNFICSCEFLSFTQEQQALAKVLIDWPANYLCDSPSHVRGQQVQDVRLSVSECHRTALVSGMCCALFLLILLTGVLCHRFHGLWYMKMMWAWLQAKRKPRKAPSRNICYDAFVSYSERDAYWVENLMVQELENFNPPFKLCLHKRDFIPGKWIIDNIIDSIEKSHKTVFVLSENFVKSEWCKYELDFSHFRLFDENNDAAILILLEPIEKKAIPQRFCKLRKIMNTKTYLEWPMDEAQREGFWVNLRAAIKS
Briefly: NF-κB activation assay, cells expressing TLR2 or TLR2 with TLR1 and/or TLR6. The class given is cell-based. To be noted: 1 μg/ml. The method, then:
A) Structure of purified PGN fraction from B. subtilis (GM3P) and synthetic PGN-related compounds used in the study. B) Structure of MDP and four copies of GlcNAc-MurNAc with attached L-Ala-γ-D-Gln (4 mer) are indicated by closed and dotted boxes, respectively. C) The ability of cells were transfected with 0.3 ng pcDNA3-NOD1-Flag, 0.1 ng pcDNA3-Nod2 (NOD2) or vector control and reporter pBxIV-luc and pEF-BOS-β-gal plasmids to activate NF-κB. D) The ability of synthetic peptides, iE-DAP and iQ-DAP to stimulate NF-κB activation in the presence of control vector (−) and plasmids encoding NOD1 wild-type, mutant NOD1 lacking LRRs (NOD1ΔLRR) and NOD2. E) The ability of iE-DAP, iQ-DAP and sBLP (1 μg/ml) to activate NF-κB.
Reagents. LPS from S. typhimurium, intact and alkaline-detoxified LPS from E. coli O55:B5 as well as purified lipid A preparations of E. coli F583, MDP, DAP and dsRNA were obtained from Sigma-Aldrich (St. Louis, Mo.). PGN from S. aureus was from Fluka-Chemie (Buchs, Germany). Palmitoyl-Cys ((RS)-2,3-di(palmitoyloxy)-propyl)-Ala-Gly) (sBLP), was obtained from Bachem (Torrance, Calif.). The tetrameric form of the disaccharide dipeptide was described previously (Inohara et al., J. Biol. Chem. 278:5509 [2003]). iE-DAP and iQ-DAP, M3P and M4P were synthesized as described (Kitaura et al., J. Med. Chem. 25:335 [1982]) with small modification. Purification of PGN from B. subtilis 168 and C. flaccumfaciens with hydrolases, Cellosyl or recombinant AtlE (amidase domain) and the fractionation and purification of reduced B. subtilis PGN digested with Cellosyl were performed as previously described (Heilman et al., Mol. Microbiol. 24:1013 [1997]; Atrih et al., J. Bact. 181:3956 [1999]). Removal of proteins and reduction of LPS fraction. E. coli O55:B5 LPS (Sigma) was treated with proteinase K at 37° C. for 12 hr to digest contaminating proteins. […] The amino acid composition of E. coli O55:B5 LPS was determined using AccQ·Tag amino acid analysis system (Waters, Milford, Mass.) after hydrolysis at 110° C. for 24 hr. […]
Turning to “γ-D-glutamy-meso-diaminopimelic acid [iE-DAP]”, the “NF-κB activation via TLR2 or TLR2 co-expressed with TLR1 and/or TLR6” value was “not TLR2 or TLR2 co-expressed with TLR1 and/or TLR6”.

As to γ-D-Gln-DAP [iQ-DAP], the “NF-κB activation via TLR2 or TLR2 co-expressed with TLR1 and/or TLR6” value was “not TLR2 or TLR2 co-expressed with TLR1 and/or TLR6”.

Regarding “Palmitoyl-Cys ((RS)-2,3-di(palmitoyloxy)-propyl)-Ala-Gly) [synthetic lipoprotein]”, the “NF-κB activation via TLR2 or TLR2 co-expressed with TLR1 and/or TLR6” value is “activated TLR2”.
